The values below come from ChEMBL document CHEMBL1140276, “Synthesis of 4(5)-phenylimidazole-based analogues of sphingosine-1-phosphate and FTY720: discovery of potent S1P1 receptor agonists” (Bioorg Med Chem Lett, 2005).

By EC50 is commonly meant the concentration that produces a half-maximal response. Higher therefore signals a need for much substance.

Assay [1] deals with T1, Sphingosine 1-phosphate receptor 1 (Homo sapiens, UniProt P21453). Kind of assay: Maximal efficacy against sphingosine-1-phosphate receptor 1 determined by a [c-35S]-GTP binding assay.
Assay [2] has as its target T2, Sphingosine 1-phosphate receptor 4 (Homo sapiens, UniProt O95977).
T2 sequence (O95977 whole entry): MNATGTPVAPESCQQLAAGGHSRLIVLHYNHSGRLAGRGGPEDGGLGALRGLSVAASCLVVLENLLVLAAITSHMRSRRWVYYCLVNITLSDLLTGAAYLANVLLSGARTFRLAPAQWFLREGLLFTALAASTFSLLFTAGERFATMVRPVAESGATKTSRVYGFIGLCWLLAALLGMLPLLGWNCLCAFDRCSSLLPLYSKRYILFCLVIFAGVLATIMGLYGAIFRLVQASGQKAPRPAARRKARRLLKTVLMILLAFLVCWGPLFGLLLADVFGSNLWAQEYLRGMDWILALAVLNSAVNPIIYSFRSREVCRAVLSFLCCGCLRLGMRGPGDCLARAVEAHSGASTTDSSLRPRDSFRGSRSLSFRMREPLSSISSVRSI
The experiment in a line: Effective concentration against sphingosine 1-phosphate receptor 4 determined by a [c-35S]-GTP binding assay.

Assay [3] addresses T3, Sphingosine 1-phosphate receptor 3 (Homo sapiens, UniProt Q99500). Kind of assay: Maximal efficacy against sphingosine 1-phosphate receptor 3 determined by a [c-35S]-GTP binding assay.
In assay [4] the target is T4, Sphingosine 1-phosphate receptor 4 (Homo sapiens) (UniProt O95977).
T4 sequence (whole entry): T2 sequence (O95977 whole entry)
The experiment in a line: Maximal efficacy against sphingosine 1-phosphate receptor 4 determined by a [c-35S]-GTP binding assay.

For assay [5], the target named is T5, Sphingosine 1-phosphate receptor 2 (Homo sapiens, UniProt O95136). Kind of assay: Maximal efficacy against sphingosine 1-phosphate receptor 2 determined by a [c-35S]-GTP binding assay.
Assay [6] concerns the target T6, Sphingosine 1-phosphate receptor 5 (Homo sapiens, UniProt Q9H228). The experiment in a line: Maximal efficacy against sphingosine 1-phosphate receptor 5 determined by a [c-35S]-GTP binding assay.
The target in assay [7] is T6, Sphingosine 1-phosphate receptor 5. The experiment in a line: Effective concentration against sphingosine 1-phosphate receptor 5 determined by a [c-35S]-GTP binding assay.
The target in assay [8] is T1, Sphingosine 1-phosphate receptor 1. Kind of assay: Effective concentration against sphingosine-1-phosphate receptor 1 determined by a [c-35S]-GTP binding assay.
Assay [9] concerns the target T3, Sphingosine 1-phosphate receptor 3. The experiment in a line: Effective concentration against sphingosine 1-phosphate receptor 3 determined by a [c-35S]-GTP binding assay.
The target in assay [10] is T5, Sphingosine 1-phosphate receptor 2. Kind of assay: Maximal efficacy against sphingosine 1-phosphate receptor 2 determined by a [c-35S]-GTP binding assay;.
Assay [11] shares this target. Kind of assay: Effective concentration against sphingosine 1-phosphate receptor 2 determined by a [c-35S]-GTP binding assay.
Assay [12] has as its target T3, Sphingosine 1-phosphate receptor 3. Kind of assay: Maximal efficacy against sphingosine 1-phosphate receptor 3 determined by a [c-35S]-GTP binding assay; no agonist activity.
The target of assay [13] is T4, Sphingosine 1-phosphate receptor 4 (Homo sapiens). Kind of assay: Maximal efficacy against sphingosine 1-phosphate receptor 4 determined by a [c-35S]-GTP binding assay; no agonist activity.
For assay [14], the target named is T5, Sphingosine 1-phosphate receptor 2. Kind of assay: Maximal efficacy against sphingosine 1-phosphate receptor 2 determined by a [c-35S]-GTP binding assay; no agonist activity.

T1 sequence (P21453 whole entry): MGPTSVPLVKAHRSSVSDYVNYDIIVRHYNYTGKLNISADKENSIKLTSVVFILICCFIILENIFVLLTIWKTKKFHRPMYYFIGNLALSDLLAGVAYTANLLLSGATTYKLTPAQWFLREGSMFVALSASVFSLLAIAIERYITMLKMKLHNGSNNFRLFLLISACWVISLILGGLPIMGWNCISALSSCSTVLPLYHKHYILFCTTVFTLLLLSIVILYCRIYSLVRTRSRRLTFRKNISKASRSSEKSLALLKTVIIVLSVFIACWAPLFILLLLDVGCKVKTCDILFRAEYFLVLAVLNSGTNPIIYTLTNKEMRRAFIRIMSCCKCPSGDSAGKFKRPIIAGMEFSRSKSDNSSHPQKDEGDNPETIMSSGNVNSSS
T3 sequence (Q99500 whole entry): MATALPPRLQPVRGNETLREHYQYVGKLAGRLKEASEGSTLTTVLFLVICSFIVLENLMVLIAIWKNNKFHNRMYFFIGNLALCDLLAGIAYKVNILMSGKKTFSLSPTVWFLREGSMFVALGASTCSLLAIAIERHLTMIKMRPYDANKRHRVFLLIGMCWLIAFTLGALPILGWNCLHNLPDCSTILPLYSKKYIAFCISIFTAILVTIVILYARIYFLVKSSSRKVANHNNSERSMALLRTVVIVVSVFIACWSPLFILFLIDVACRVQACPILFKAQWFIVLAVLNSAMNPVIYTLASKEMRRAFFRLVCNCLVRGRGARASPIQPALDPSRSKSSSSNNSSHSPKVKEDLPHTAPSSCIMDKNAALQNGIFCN
T6 sequence (Q9H228 whole entry): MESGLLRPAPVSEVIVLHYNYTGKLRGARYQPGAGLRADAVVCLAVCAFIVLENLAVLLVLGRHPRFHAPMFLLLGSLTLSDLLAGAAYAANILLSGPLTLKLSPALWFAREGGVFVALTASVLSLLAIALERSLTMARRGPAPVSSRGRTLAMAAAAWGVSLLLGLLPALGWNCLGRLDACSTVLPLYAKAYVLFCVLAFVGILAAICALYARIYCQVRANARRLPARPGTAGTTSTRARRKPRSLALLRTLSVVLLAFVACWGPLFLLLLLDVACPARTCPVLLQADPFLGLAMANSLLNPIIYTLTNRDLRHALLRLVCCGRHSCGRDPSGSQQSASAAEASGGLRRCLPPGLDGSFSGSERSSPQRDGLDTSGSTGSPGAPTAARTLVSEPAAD
T5 sequence (O95136 whole entry): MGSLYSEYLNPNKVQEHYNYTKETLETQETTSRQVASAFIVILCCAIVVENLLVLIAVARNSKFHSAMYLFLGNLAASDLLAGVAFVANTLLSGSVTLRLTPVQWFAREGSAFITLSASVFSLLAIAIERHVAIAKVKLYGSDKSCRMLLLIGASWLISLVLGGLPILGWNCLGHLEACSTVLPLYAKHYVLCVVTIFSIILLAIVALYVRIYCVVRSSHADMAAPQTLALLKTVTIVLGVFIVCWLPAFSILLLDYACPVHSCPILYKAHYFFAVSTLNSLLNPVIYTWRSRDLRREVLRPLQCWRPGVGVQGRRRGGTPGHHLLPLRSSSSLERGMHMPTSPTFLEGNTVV

As for `CCCCCCCCc1ccc(-c2c[nH]c(C(N)(CO)CO)n2)cc1`, the Emax in [1] was 0.66; in assay [3], 0; in assay [4], 0.79; in [5], 0; in assay [6], 0.48. Besides, the EC50 is 0.66 µM in assay [2], 6.7 µM in assay [7] and 5.1 µM in assay [8].
As to `CCCCCCCCc1ccc(-c2c[nH]c(C(N)(CO)COP(O)(O)=S)n2)cc1` (configuration not stated), the Emax is 0.66 in assay [1]; 0.68 in assay [3]; 0.72 in [4]; 0 in assay [5]; 0.56 in assay [6]. Besides, the EC50 in assay [2] stood at 0.089 µM; in [9], 0.79 µM; in assay [7], 0.016 µM; in [8] it was 0.15 µM.
Take `CCCCCCCCc1ccc(-c2c[nH]c([C@@H](N)COP(=O)(O)O)n2)cc1`: the Emax in assay [1] was 0.69; in assay [3], 0.42; in assay [4] it was 0.79; in assay [6], 0.69; in assay [10], 0. For the same compound, the EC50 in [2] worked out at 0.15 µM; in [9] it was 0.33 µM; in [7], 0.012 µM; in assay [8], 0.004 µM.
Regarding `CCCCCCCCc1ccc(-c2c[nH]c(C(C)(N)COP(=O)(O)O)n2)cc1` (configuration not stated), the Emax in assay [1] amounted to 0.88; in [3], 0.53; in assay [4] it was 0.94; in assay [5], 0; in assay [6], 0.72. Also, the EC50 in [2] is 0.091 µM; in assay [9], 0.78 µM; in assay [7], 0.026 µM; in [8], 0.0047 µM.
Take `CCCCCCCCc1ccc(-c2c[nH]c([C@@H](N)COP(O)(O)=S)n2)cc1`: the Emax was 0.67 in assay [1]; 0.45 in assay [3]; 0.82 in [4]; 0 in assay [5]; 0.82 in assay [6]. Further, the EC50 in assay [2] turned out to be 0.19 µM; in assay [9], 0.69 µM; in assay [7], 0.029 µM; in assay [8] it was 0.0064 µM.
Turning to `CCCCCCCCCCCCC/C=C/[C@@H](O)[C@@H](N)COP(=O)(O)O`, the Emax in assay [1], in assay [3], in [4], in assay [5] and in assay [6] was 1 each time.
In the case of `CCCCCCCCc1ccc(-c2c[nH]c([C@H](N)COP(=O)(O)O)n2)cc1`, the Emax in [1] is 0.75; in assay [3] it was 0.56; in [4], 1; in [5], 0; in [6], 0.73. Besides, the EC50 in assay [2] came out at 0.4 µM; in assay [9] it was 1.7 µM; in assay [7] it was 0.037 µM; in assay [8], 0.007 µM.
Take `CCCCCCCCc1ccc(-c2c[nH]c(C(C)(N)COP(O)(O)=S)n2)cc1` (configuration not stated): the Emax is 0.87 in [1]; 0.44 in [3]; 0.68 in [4]; 0 in assay [5]; 0.6 in [6]. Moreover, the EC50 in assay [2] came to 0.17 µM; in assay [9] it was 1.6 µM; in assay [7], 0.051 µM; in assay [8] it was 0.0098 µM.
For the compound `CCCCCCCCc1ccc(-c2c[nH]c([C@H](N)CO)n2)cc1`, the Emax in assay [1] is 0.98; in assay [3] it was 0.38; in assay [4] it was 0.9; in assay [5] it was 0; in [6], 0.83. The EC50 in assay [2] was 7.4 µM; in assay [9], 2.7 µM; in assay [7], 0.86 µM; in assay [8], 2.7 µM.
For `CCCCCCCCc1ccc(-c2c[nH]c(C(N)(CO)COP(=O)(O)O)n2)cc1` (configuration not stated), the Emax worked out at 0.91 in assay [1]; 0.21 in assay [3]; 0.87 in assay [4]; 0.95 in [5]; 0.66 in assay [6]. For the same compound, the EC50 in [11] was determined as 0.018 µM; in assay [2] it was 0.16 µM; in assay [9], 0.63 µM; in assay [7], 0.017 µM; in assay [8] it was 0.0079 µM.
As for `CCCCCCCCc1ccc(-c2c[nH]c(C(C)(N)CO)n2)cc1` (configuration not stated), the Emax in assay [1], in [12], in assay [6], in [13] and in assay [14] was 0 each time.
With `CCCCCCCCc1ccc(CCC(N)(CO)COP(=O)(O)O)cc1` (configuration not stated), the Emax was 1 in [1]; 0.5 in assay [3]; 0.78 in assay [4]; 0 in [5]; 0.56 in assay [6]. In assay [2], the response was half-maximal at 0.041 µM (EC50).
